# Laboratory results as given in patent US20020193283A1, “Inhibitors of prenyl-protein transferase” (priority 2000, published 2002).
# Assay: the assays disclosed below (unspecified, Examples 10-17)
# Conditions: assays not specified
structure (smiles),measurement,value
"Cc1ncc(CN2CCN(C(=O)OC(C)(C)C)CC2)n1Cc1ccc(C#N)c(Oc2cccc(OCCO)c2)c1 [Example 1 Step G, 1-(tert-butoxycarbonyl)-4-[1-(3-((3-(2-hydroxyethoxy)phenyl)oxy)-4-cyanobenzyl)-2-methyl-5-imidazolylmethyl]piperazine]",activity in the assays disclosed below,active
